In PubChem BioAssay (NCI):
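Five compound concentrations were applied to cells in 96-well plates for 48 hours; endpoints were derived by simple linear interpolation of the resulting dose-response curve. TGI: concentration producing complete growth inhibition.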

Key:
Assay in all cases: inhibition of tumour cell growth, NCI panel, 48 h
786-0 renal = system: 786-0 renal
A498 renal = system: A498 renal
A549 NSCLC = system: A549 NSCLC
ACHN renal = system: ACHN renal
CAKI-1 renal = system: CAKI-1 renal
CCRF-CEM leukemia = system: CCRF-CEM leukemia
COLO 205 colon = system: COLO 205 colon
DLD-1 colon = system: DLD-1 colon
DMS 114 small cell lung = system: DMS 114 small cell lung
DMS 273 small cell lung = system: DMS 273 small cell lung
EKVX NSCLC = system: EKVX NSCLC
HCT-15 colon = system: HCT-15 colon
HL-60(TB) leukemia = system: HL-60(TB) leukemia
HT29 colon = system: HT29 colon
IGROV1 ovarian = system: IGROV1 ovarian
K-562 leukemia = system: K-562 leukemia
KM12 colon = system: KM12 colon
KM20L2 colon = system: KM20L2 colon
LOX IMVI melanoma = system: LOX IMVI melanoma
LXFL 529 NSCLC = system: LXFL 529 NSCLC
M14 melanoma = system: M14 melanoma
MALME-3M melanoma = system: MALME-3M melanoma
MOLT-4 leukemia = system: MOLT-4 leukemia
NCI-H23 lung = system: NCI-H23 lung
NCI-H460 lung = system: NCI-H460 lung
NCI-H522 lung = system: NCI-H522 lung
OVCAR-4 ovarian = system: OVCAR-4 ovarian
OVCAR-5 ovarian = system: OVCAR-5 ovarian
OVCAR-8 ovarian = system: OVCAR-8 ovarian
RPMI-8226 leukemia = system: RPMI-8226 leukemia
RXF 393 renal = system: RXF 393 renal
RXF-631 renal = system: RXF-631 renal
SF-268 CNS = system: SF-268 CNS
SF-295 CNS = system: SF-295 CNS
SF-539 CNS = system: SF-539 CNS
SK-MEL-2 melanoma = system: SK-MEL-2 melanoma
SK-MEL-28 melanoma = system: SK-MEL-28 melanoma
SK-MEL-5 melanoma = system: SK-MEL-5 melanoma
SK-OV-3 ovarian = system: SK-OV-3 ovarian
SN12C renal = system: SN12C renal
SNB-19 CNS = system: SNB-19 CNS
SNB-75 CNS = system: SNB-75 CNS
SNB-78 CNS = system: SNB-78 CNS
SW-620 colon = system: SW-620 colon
TK-10 renal = system: TK-10 renal
U251 CNS = system: U251 CNS
UACC-257 melanoma = system: UACC-257 melanoma
UACC-62 melanoma = system: UACC-62 melanoma
UO-31 renal = system: UO-31 renal
XF 498 CNS = system: XF 498 CNS
HCC-2998 colon = system: HCC-2998 colon
HOP-62 NSCLC = system: HOP-62 NSCLC
M19-MEL melanoma = system: M19-MEL melanoma
NCI-H226 lung = system: NCI-H226 lung
OVCAR-3 ovarian = system: OVCAR-3 ovarian

c1ccc2c(c1)c1ccccc1c1n[se]nc21
TGI (786-0 renal): > 100 µM | TGI (A498 renal): 67.1 µM | TGI (A549 NSCLC): > 100 µM | TGI (ACHN renal): > 100 µM | TGI (CAKI-1 renal): > 100 µM | TGI (CCRF-CEM leukemia): > 100 µM | TGI (COLO 205 colon): > 100 µM | TGI (DLD-1 colon): > 100 µM | TGI (DMS 114 small cell lung): > 100 µM | TGI (DMS 273 small cell lung): > 100 µM | TGI (EKVX NSCLC): > 100 µM | TGI (HCT-15 colon): > 100 µM | TGI (HL-60(TB) leukemia): > 100 µM | TGI (HT29 colon): > 100 µM | TGI (IGROV1 ovarian): > 100 µM | TGI (K-562 leukemia): > 100 µM | TGI (KM12 colon): > 100 µM | TGI (KM20L2 colon): > 100 µM | TGI (LOX IMVI melanoma): > 100 µM | TGI (LXFL 529 NSCLC): 48.6 µM | TGI (M14 melanoma): > 100 µM | TGI (MALME-3M melanoma): > 100 µM | TGI (MOLT-4 leukemia): > 100 µM | TGI (NCI-H23 lung): > 100 µM | TGI (NCI-H460 lung): > 100 µM | TGI (NCI-H522 lung): > 100 µM | TGI (OVCAR-4 ovarian): > 100 µM | TGI (OVCAR-5 ovarian): > 100 µM | TGI (OVCAR-8 ovarian): > 100 µM | TGI (RPMI-8226 leukemia): > 100 µM | TGI (RXF 393 renal): > 100 µM | TGI (RXF-631 renal): > 100 µM | TGI (SF-268 CNS): > 100 µM | TGI (SF-295 CNS): > 100 µM | TGI (SF-539 CNS): 92.2 µM | TGI (SK-MEL-2 melanoma): > 100 µM | TGI (SK-MEL-28 melanoma): > 100 µM | TGI (SK-MEL-5 melanoma): > 100 µM | TGI (SK-OV-3 ovarian): 64.3 µM | TGI (SN12C renal): > 100 µM | TGI (SNB-19 CNS): > 100 µM | TGI (SNB-75 CNS): 59 µM | TGI (SNB-78 CNS): > 100 µM | TGI (SW-620 colon): > 100 µM | TGI (TK-10 renal): > 100 µM | TGI (U251 CNS): > 100 µM | TGI (UACC-257 melanoma): > 100 µM | TGI (UACC-62 melanoma): > 100 µM | TGI (UO-31 renal): > 100 µM | TGI (XF 498 CNS): 77.2 µM

O=C(c1ccc(Cl)cc1Cl)N(/N=C/C=C/c1ccccc1)c1nnc(-c2ccccc2)c(-c2ccccc2)n1
TGI (786-0 renal): > 100 µM | TGI (A498 renal): > 100 µM | TGI (A549 NSCLC): > 100 µM | TGI (ACHN renal): > 100 µM | TGI (CCRF-CEM leukemia): > 100 µM | TGI (COLO 205 colon): > 100 µM | TGI (DLD-1 colon): > 100 µM | TGI (DMS 114 small cell lung): > 100 µM | TGI (DMS 273 small cell lung): > 100 µM | TGI (EKVX NSCLC): > 100 µM | TGI (HCC-2998 colon): > 100 µM | TGI (HCT-15 colon): > 100 µM | TGI (HL-60(TB) leukemia): > 100 µM | TGI (HOP-62 NSCLC): > 100 µM | TGI (HT29 colon): > 100 µM | TGI (IGROV1 ovarian): > 100 µM | TGI (K-562 leukemia): > 100 µM | TGI (KM12 colon): > 100 µM | TGI (KM20L2 colon): > 100 µM | TGI (LOX IMVI melanoma): > 100 µM | TGI (M19-MEL melanoma): > 100 µM | TGI (MALME-3M melanoma): > 100 µM | TGI (MOLT-4 leukemia): > 100 µM | TGI (NCI-H226 lung): > 100 µM | TGI (NCI-H23 lung): > 100 µM | TGI (NCI-H460 lung): > 100 µM | TGI (NCI-H522 lung): 82.5 µM | TGI (OVCAR-3 ovarian): > 100 µM | TGI (OVCAR-4 ovarian): > 100 µM | TGI (OVCAR-5 ovarian): > 100 µM | TGI (OVCAR-8 ovarian): > 100 µM | TGI (RPMI-8226 leukemia): > 100 µM | TGI (RXF 393 renal): > 100 µM | TGI (RXF-631 renal): > 100 µM | TGI (SF-268 CNS): > 100 µM | TGI (SF-295 CNS): > 100 µM | TGI (SF-539 CNS): > 100 µM | TGI (SK-MEL-2 melanoma): > 100 µM | TGI (SK-MEL-28 melanoma): > 100 µM | TGI (SK-MEL-5 melanoma): > 100 µM | TGI (SK-OV-3 ovarian): > 100 µM | TGI (SN12C renal): > 100 µM | TGI (SNB-19 CNS): > 100 µM | TGI (SNB-75 CNS): > 100 µM | TGI (SNB-78 CNS): > 100 µM | TGI (SW-620 colon): > 100 µM | TGI (TK-10 renal): > 100 µM | TGI (U251 CNS): > 100 µM | TGI (UACC-257 melanoma): > 100 µM | TGI (UACC-62 melanoma): > 100 µM | TGI (UO-31 renal): > 100 µM | TGI (XF 498 CNS): > 100 µM
